Laboratory results from paper PMC9743092, “Membrane-Active Cyclic Amphiphilic Peptides: Broad-Spectrum Antibacterial Activity Alone and in Combination with Antibiotics” (Journal of Medicinal Chemistry, 2022).
≈ marks a conversion by molar mass, not a printed value.

Assays:
[1] = system: human red blood cells (hRBCs); conditions: red cells of human, 2 h
Experimental: The hemolytic activity of all the cyclic peptides was determined using human red blood cells (hRBC) purchased from BioIVT, USA. […] Peptide-induced hemolysis was tested in triplicate by mixing 75 μL of the peptide solution in PBS (two-fold serial dilution) with 75 μL of a 4% (v/v) hRBC suspension in phosphate-buffered saline. The plates were incubated for 2 h at 37 °C without agitation and centrifuged at 1000g for 10 min. Aliquots (100 μL) of the supernatant were transferred to 96-well plates, where hemoglobin release was measured spectrophotometrically at 567 nm. Percent hemolysis was calculated by the following formula: [drawing 1] where A represents the absorbance of the peptide sample at 567 nm and A0 and At represent zero percent and 100% hemolysis determined in phosphate-buffered saline and 1% Triton X-100, respectively.

E. coli (ATCC 25922) [2] = system: E. coli (ATCC 25922)
[3] = system: K. pneumoniae (ATCC 700603)
[4] = system: K. pneumoniae (ATCC BAA 1705)
[5] = system: P. aeruginosa (ATCC 27853)
[6] = system: Acinetobacter baumannii (NCTC 13304)
[7] = system: Acinetobacter baumannii-calcoaceticus species complex (1188767)
[8] = system: Acinetobacter baumannii-calcoaceticus species complex (1189854)
[9] = system: K. pneumoniae (ATCC BAA-1705); conditions: 24 h, ≥99.9% kill
[10] = system: P. aeruginosa (ATCC 27883); conditions: 24 h, ≥99.9% kill
E. coli (ATCC 25922) [11] = conditions: 24 h, ≥99.9% kill
in vitro = conditions: human, human plasma
Experimental: For accurate quantification, we employed a mass spectrometer (Q-TOF LC/MS) with a high resolving power. To remove the background interference, the data were processed by using a narrower (±0.1 m/z) extracted ion chromatogram (EIC) window. The test peptide (100 μM) was incubated in human plasma at 37 °C in a water bath. […] Plasma proteins were precipitated by the addition of cold ethanol (200 μL) and incubated for 30 min at −20 °C. […] The samples were dissolved in water and analyzed on a Delta-Pak (Waters) C18 column (100 Å, 5 μm, 3.9 mm × 150 mm) at a flow rate of 0.3 mL/min using a linear gradient of aqueous acetonitrile in the presence of formic acid (FA; 0.1%, v/v) as an ion pair reagent. Peptides were detected by recording the absorbance at 220 nm and quantified by their peak areas of EIC. The percentage digestion of the test peptides was calculated relative to the peak areas at 0 min.

## N=C(N)NCCC[C@@H]1NC(=O)[C@H](CCCNC(=N)N)NC(=O)[C@H](CCCNC(=N)N)NC(=O)[C@H](Cc2c[nH]c3ccccc23)NC(=O)[C@H](Cc2c[nH]c3ccccc23)NC(=O)[C@H](Cc2c[nH]c3ccccc23)NC(=O)[C@H](Cc2c[nH]c3ccccc23)NC(=O)[C@H](CCCNC(=N)N)NC(=O)[C@H](CCCNC(=N)N)NC1=O [5a, [R5W4]]
[1]
  HC50: 340 µg/mL
S. aureus (1193193)
  MIC S. aureus (1193193): 4 µg/mL (≈ 2.62 µM)
S. aureus (1195201)
  MIC S. aureus (1195201): 4 µg/mL (≈ 2.62 µM)
S. aureus (ATCC 29213)
  MIC S. aureus (ATCC 29213): 4 µg/mL (≈ 2.62 µM)
E. coli (1191008)
  MIC E. coli (1191008): 16 µg/mL (≈ 10.5 µM)
E. coli (ATCC 25922) [2]
  MIC E. coli (ATCC 25922): 16 µg/mL (≈ 10.5 µM)
E. coli (ATCC BAA-2452)
  MIC E. coli (ATCC BAA-2452): 16 µg/mL (≈ 10.5 µM)
[3]
  MIC K. pneumoniae (ATCC 700603): >64 µg/mL
K. pneumoniae (1188718)
  MIC K. pneumoniae (1188718): >64 µg/mL
[4]
  MIC K. pneumoniae (ATCC BAA 1705): >64 µg/mL
P. aeruginosa (1191191)
  MIC P. aeruginosa (1191191): 32 µg/mL (≈ 21 µM)
P. aeruginosa (1188712)
  MIC P. aeruginosa (1188712): 16 µg/mL (≈ 10.5 µM)
[5]
  MIC P. aeruginosa (ATCC 27853): 32 µg/mL (≈ 21 µM)
[6]
  MIC Acinetobacter baumannii (NCTC 13304): 16 µg/mL (≈ 10.5 µM)
[7]
  MIC Acinetobacter baumannii-calcoaceticus species complex (1188767): 32 µg/mL (≈ 21 µM)
[8]
  MIC Acinetobacter baumannii-calcoaceticus species complex (1189854): 16 µg/mL (≈ 10.5 µM)
[9]
  MBC K. pneumoniae (ATCC BAA-1705): 64 µg/mL (≈ 41.9 µM)
[10]
  MBC P. aeruginosa (ATCC 27883): 32 µg/mL (≈ 21 µM)
E. coli (ATCC 25922) [11]
  MBC E. coli (ATCC 25922): 16 µg/mL (≈ 10.5 µM)
In vitro
  remaining at 0.5 h, 100 μM: ~79%
  remaining at 2 h, 100 μM: ~56%
